Measurements reported in PubChem BioAssay (NCI).
Where “and” joins values, the source holds several entries; their conditions need not be identical. Equal values may be shown once.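 These data come from cells grown in 96-well plates and exposed to compound for 48 hours at five concentrations. GI50 is the concentration that inhibits growth by half. TGI is the concentration that stops growth completely.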

Legend:
Assay in all cases: NCI tumour cell line growth inhibition, 48 h
ACHN renal = test system: ACHN renal
HCC-2998 colon = test system: HCC-2998 colon
HCT-15 colon = test system: HCT-15 colon
MDA-N = test system: MDA-N
MOLT-4 leukemia = test system: MOLT-4 leukemia
NCI-H226 lung = test system: NCI-H226 lung
OVCAR-3 ovarian = test system: OVCAR-3 ovarian
OVCAR-8 ovarian = test system: OVCAR-8 ovarian
SN12C renal = test system: SN12C renal
SNB-75 CNS = test system: SNB-75 CNS
UACC-62 melanoma = test system: UACC-62 melanoma
BT-549 breast = test system: BT-549 breast

Compound | TGI (ACHN renal) [µM] | TGI (HCC-2998 colon) [µM] | TGI (HCT-15 colon) [µM] | TGI (MDA-N) [µM] | TGI (MOLT-4 leukemia) [µM] | TGI (NCI-H226 lung) [µM] | TGI (OVCAR-3 ovarian) [µM] | TGI (OVCAR-8 ovarian) [µM] | TGI (SN12C renal) [µM] | TGI (SNB-75 CNS) | TGI (UACC-62 melanoma) [µM] | TGI (BT-549 breast) [µM] | GI50 (SNB-75 CNS) [nM]
CCCC(=O)O[C@H]1C=C2C[C@@]34SS[C@]5(CC6=C[C@H](OC(C)=O)[C@@H]7O[C@@H]7[C@H]6N5C3=O)C(=O)N4[C@@H]2[C@H]2O[C@H]21 | 0.0391 | 0.0194 | 1.43 | 0.0314 | 1.91 | 1.77 | 0.0314 | 0.907 | 0.0111 | 0.331 µM | 0.0851 |  | 
CCN(CC)CCCC(C)Nc1ccnc2ccc3nn(C)nc3c12 (configuration not stated) | > 100 | > 100 |  |  | > 100 | > 100 |  | > 100 | > 100 | > 100 µM | > 100 |  | 
c1ccc(C2=NOC3(c4ccccc4)SC4CCCCC4CN23)cc1 (configuration not stated) | 70.9 | > 100 | > 100 |  | 51.3 | > 100 | > 100 |  | > 100 | 84.8 µM | 83.1 |  | 
COc1ccc(C2Oc3cc(OC)c(O)c(C)c3[C@H]2C)cc1 (some centres not stated) | > 100 | > 100 | > 100 |  | 89.3 | > 100 | > 100 | > 100 |  | 69.5 µM | > 100 |  | 
O=C1N2CCc3c([nH]c4ccccc34)C23CC2CCCCC12S3 (configuration not stated) | > 100 |  | > 100 | > 100 | > 100 | > 100 | > 100 | > 100 | > 100 |  | > 100 | > 100 | 
NC(=O)c1coc(C2OC(CO)C(O)C2O)n1 (configuration not stated) | > 100 | > 100 | > 100 |  | > 100 | > 100 | > 100 |  | > 100 |  | > 100 |  | 
Cc1ccc2c(c1)C(=O)N1CCC[C@H]1C=N2 | > 70.9 | 45.6 | > 76.4 | 37.6 | > 84.1 |  | > 67.2 | > 100 | > 100 |  | 34.7 | 84.7 | 
O=C(Cc1csc(N=Nc2c(O)[nH]c3ccccc23)n1)Nc1ccccc1 | 54.4 | 94.3 | > 100 |  | > 100 |  | 93.3 | 65.8 | > 100 | 86.9 µM |  | > 100 | 
COc1cc(/C=C2/SC(c3ccccc3)N(c3ccccc3)C2=O)cc(OC)c1OC (configuration not stated) | > 100 | > 100 | > 100 |  | > 100 | > 100 | > 100 | > 100 | > 100 |  | > 100 | > 100 | 
Cc1cc(S(=O)(=O)/N=C(\[N-]S(=O)(=O)c2ccc(Cl)cc2)[n+]2ccc(N(C)C)cc2)c(S)cc1Cl | > 100 | > 100 | > 100 | > 100 | 96.5 | > 100 | > 100 | > 100 |  |  |  |  | 
C/C=C1/CN2CCC3(O)c4ccccc4N4C=C(C(=O)OC)C1CC2C43O (configuration not stated) | > 100 | > 100 | > 100 | > 100 | > 100 |  | > 100 | > 100 | > 100 | > 100 µM | > 100 | > 100 | 
CCCCOC(=O)NC(Nc1cccc(C(F)(F)F)c1)(C(F)(F)F)C(F)(F)F | > 100 |  | > 100 | > 100 | > 100 | > 100 | > 100 | > 100 | > 100 | > 100 µM | > 100 |  | 
NC(=O)NC(=O)c1cccc(CNc2ccc(C(=O)N[C@@H](CCC(=O)O)C(=O)O)cc2)n1 | > 100 | > 100 | > 100 | > 100 | > 100 | > 100 | > 100 | > 100 | > 100 |  | > 100 | > 100 | 
COC(C(=O)C(O)C(C)O)C1CC2C=C3C=C(OC4CC(OC5CC(O)C(OC)C(C)O5)C(OC(C)=O)C(C)O4)C(C)C(=O)C3=C(O)C2=C(O)C1OC1CC(OC2CC(OC3CC(C)(O)C(OC(=O)C(C)C)C(C)O3)C(O)C(C)O2)C(O)C(C)O1 (configuration not stated) |  | < 0.01 |  | < 0.01 | > 100 | < 0.01 |  | < 0.01 | < 0.01 | < 0.01 µM | < 0.01 |  | 
O=C(C[n+]1ccccc1)N/N=C(\Cc1nc2ccc([N+](=O)[O-])cc2[nH]c1=O)C(=O)Nc1cc(Cl)c(Cl)cc1Cl | > 100 | > 100 | > 100 |  | > 100 | > 100 | > 100 | > 100 | > 100 | > 100 µM | > 100 | > 100 | 
COP(=O)(Cc1ccccc1)Cc1ccccc1 | > 100 | > 100 | > 100 |  | > 100 | > 100 |  | > 100 | > 100 | > 100 µM | > 100 | > 100 | 
CC=CCOc1cc(NC(=S)OC(C)C)ccc1Cl (mixture of isomers) | 31.6 | 30.3 | 33.7 | 35.4 | 38.8 | 33 | 38.1 | 33.9 | 29 |  | 30.7 | 38.6 | 
[N-]=[N+]=Nc1c(C=O)c(=O)n(-c2ccccc2)c2ccccc12 | 40.7 | 40.1 | 46.4 | > 100 | 12.7 |  | 32.4 |  | > 100 | 94.2 µM | 28.8 | > 100 | 
Cc1ccc2c(sc(-c3ccc4c(c3)sc(-c3ccc5c(c3)sc(-c3ccc(N(C)C)cc3)[n+]5C)[n+]4C)[n+]2C)c1S(=O)(=O)O (tested in a mixture with another compound) | > 100 | > 100 | > 100 | > 100 | > 100 |  | > 100 | > 100 | > 100 | > 100 µM | > 100 | > 100 | 
COC(=O)C1c2c(c3ccccc3n2C(=O)OC)CCN2CCC1C(S(=O)(=O)c1ccccc1)C2=O (configuration not stated) |  |  | > 100 | > 100 | > 100 | > 100 | > 100 | > 100 | > 100 | > 100 µM | > 100 | > 100 | 

Compound | TGI (ACHN renal) [µM] | TGI (HCC-2998 colon) [µM] | TGI (HCT-15 colon) [µM] | TGI (MDA-N) [µM] | TGI (MOLT-4 leukemia) [µM] | TGI (NCI-H226 lung) [µM] | TGI (OVCAR-3 ovarian) [µM] | TGI (OVCAR-8 ovarian) [µM] | TGI (SN12C renal) [µM] | TGI (SNB-75 CNS) | TGI (UACC-62 melanoma) [µM] | TGI (BT-549 breast) [µM] | GI50 (SNB-75 CNS) [nM]
CN(CCO)c1nc(N)cc(=O)[nH]1 | > 100 | > 100 | > 100 |  | > 100 | > 100 | > 100 | > 100 | > 100 | > 100 µM | > 100 |  | 
COc1ccc2c(c1)/C(=C\c1c(C)nc3sc(C)cn13)C(=O)N2 | > 100 | 3.85 | 74.6 | 0.46 | > 83.8 | > 87.6 | 3.93 | 41.6 | > 100 |  | 97.9 | 45.8 | 
O=C1NC(N2CCCCC2)=N/C1=C\c1cccs1 | > 100 | > 100 | > 100 | > 100 | > 100 | > 100 | > 100 | > 100 | > 100 |  | > 100 | > 100 | 
CS(=O)(=O)c1c(N)c2nc(Cl)cn2c2nc3ccccc3nc12 | > 100 | > 100 | > 100 |  | > 100 | > 100 | > 100 | > 100 | > 100 | > 100 µM | > 100 |  | 
O=c1[nH]c2cc([N+](=O)[O-])ccc2nc1/C(=N/Nc1ccccc1)C(O)c1ccc(C(O)/C(=N\Nc2ccccc2)c2cnc3cc([N+](=O)[O-])ccc3n2)cc1 (configuration not stated) | > 100 | 87.1 |  |  | > 100 |  | > 100 | > 100 | > 100 |  | > 100 |  | 
CN(C)CC1COC2Cc3ccccc3C1O2 (configuration not stated) | > 100 | > 100 | > 100 | > 100 | > 100 | > 100 | > 100 | > 100 | > 100 | 75.7 µM and 94.5 µM | > 100 |  | 
O=C(Cc1csc(-c2nc(CC(=O)NNc3ccccc3)cs2)n1)NNc1ccccc1 | > 100 | > 100 | > 100 |  | > 100 | > 100 | > 100 | > 100 | > 100 | > 100 µM | > 100 |  | 
N#CC(=C1CCCCC1)c1nc2ccccc2o1 | > 100 | > 100 | > 100 | > 100 | > 100 | > 100 | > 100 | > 100 | > 100 |  | > 100 | 89.1 | 
Cc1oc(N)c(S(=O)(=O)c2ccc(Cl)cc2)c1C | > 100 | > 100 | > 100 |  | > 100 | > 100 | > 100 | > 100 |  | > 100 µM | > 100 | 60.5 | 
CCCCc1ccc(Nc2nc(=S)c3[nH]cnc3[nH]2)cc1 | 59.2 | 66.4 | > 100 |  | 22.2 | 31.6 | 43 |  | 59 |  | 35.1 | 39 | 
Clc1ccccc1C1=NN(c2ccccc2)C2c3ccccc3OCC12 (configuration not stated) | > 100 | > 100 |  |  | > 100 |  | > 100 | > 100 |  | > 100 µM |  |  | 
Oc1ccccc1C=Nc1ccc(-c2nc3ccccc3[nH]2)cc1 | > 100 |  | > 100 | > 100 | > 100 | > 100 | > 100 | > 100 | > 100 | > 100 µM |  | 54.4 | 
C/C1=C/C(C)CC(C)OC(=O)C(C)NC(=O)C(Cc2ccc(O)c(I)c2)N(C)C(=O)C(C)NC(=O)C(C)C1 (configuration not stated) |  | 5.2 | 12.1 | 30.7 | 23.7 |  | < 0.01 | 17.9 | > 89.2 | < 0.01 µM | 15 | 0.737 | 
OC[C@]1(n2nc3ccccc3n2)OC[C@@H]1c1ccccc1 | > 100 | > 100 | > 100 | > 100 | > 100 | > 100 | 71.2 | > 100 | > 100 |  | > 100 | 99.5 | 
CC(C)(C)NC(=O)NC12CC3CC(CC(F)(C3)C1)C2 | > 100 | > 100 |  |  | > 100 |  | > 100 | > 100 |  | > 100 µM | > 100 |  | 
C=C(C)C1CC/C(C)=C/CC[C@]2(C)O[C@H]2CC/C(COC(C)=O)=C\[C@@H]1O (some centres not stated) | > 50 | > 50 | > 50 |  | > 50 | > 50 | > 50 | > 50 | > 50 | 15.2 µM | > 50 | > 50 | 625
CCCCSC1=N/C(=C\c2ccc(N(C)C)cc2)C(NN)=N1 | > 100 | > 100 | > 100 | > 100 | > 100 |  | > 100 | > 100 | > 100 | > 100 µM | > 100 | > 100 | 
CC1=CCC2C3(C)CCC2(C(C)C)C1C3 (configuration not stated) (tested in a mixture with another compound) | 36.9 | 49.5 | 33.3 | > 100 | 75.3 |  | 30.2 | 33.2 | 36.2 | 77.5 µM | > 100 | 45.8 | 
CCOC(=O)c1nc2ccccc2nc1Nc1ccc(OC)c(OC)c1 | > 100 | > 100 | > 100 | > 100 | > 100 |  | > 100 |  | > 100 | 77 µM | > 100 | > 100 | 
Cc1ccc(S(=O)(=O)N2C[C@](O)(c3ccccc3)[C@H]2C)cc1 | > 100 |  | > 100 | > 100 | > 100 | > 100 |  | > 100 | > 100 | > 100 µM | > 100 |  | 
